In patent publication US10604741B2, “Compositions and methods for enhancing virus replication” (TURNSTONE LIMITED PARTNERSHIP, priority 2013, dated 2020):
Where two headings read alike, the source gives them in different places.

Columns and labels:
[1] = Enhancement of virus replication, test not described; conditions: no test details given
VSVΔ51 in WI38 cells = type: cell-based, human; conditions: 24 hours
VSVΔ51 in MC38 cells = type: cell-based, mouse; conditions: 48 hours
[2] = system: Measles virus (Edmonston strain) in WI38 cells; assay: Measles virus titers in WI38 cells treated with FGF2, plaque assay; type: cell-based, human; conditions: FGF2 100 ng/ml, serum free media; MOI 0.1; 48 hours; FIG. 22
Procedure: WI38 cells were treated with 100 ng/ml FGF2, or mock treated, in serum free media.
24 hours later, cells were infected with Measles virus (Edmonston strain) at an MOI 0.1. 48 hours later, supernatants were collected and virus titration was performed by plaque assay in Vero cells. The resulting titers are illustrated in FIG. 22.

VSVΔ51 in 786-0 cells [3] = type: cell-based, human; conditions: 24 hours
[4] = system: human H1N1 Influenza A strain FM/1/47 in MRC5 cells; assay: Influenza A titers in MRC5 cells treated with FGF2, nucleoprotein ELISA; type: cell-based; conditions: FGF2 100 ng/ml, serum free media; MOI 0.05 or 0.1; FIG. 21
Procedure: MRC5 cells were treated with 100 ng/ml FGF2, 100 ng/ml leptin, or mock treated, in serum free media.
48 hours later, cells were infected with the human H1N1 Influenza A strain FM/1/47 at MOI 0.05 or 0.1, as indicated, in the presence of 1 μg/ml TPCK trypsin. 48 h (MOI 0.1) or 72 h (MOI 0.05) later, supernatants from triplicate wells were collected and pooled. Viral titers were obtained by ELISA for Influenza A nucleoprotein. The resulting titers are illustrated in FIG. 21.

VSVΔ51 in OVCAR8 cells = type: cell-based, human; conditions: 24 hours
VSVΔ51 in 786-0 tumors [5] = system: VSVΔ51 in 786-0 tumors; parameters: species or system SCID mice; conditions: mouse, in vivo, iv
VSV in 786-0 cells = type: cell-based, human; conditions: 24 hours
JX594-GFP in 786-0 cells [6] = type: cell-based, human; conditions: 48 hours
MG1 in 786-0 cells = type: cell-based, human; conditions: 24 hours
Reovirus in 786-0 cells = type: cell-based, human; conditions: 48 hours
VSVΔ51 in CT26 cells = type: cell-based, mouse; conditions: 24 hours
VSVΔ51 in 786-0 cells [7] = type: cell-based, human
HSV-1 in 786-0 cells = type: cell-based, human; conditions: 48 hours
VSVΔ51 in MiaPaca tumors [8] = type: in vivo, SCID mice; conditions: 72 hours
VSVΔ51 in 786-0 tumors [9] = type: cell-based, SCID mice
VSVΔ51 in OVCAR8 tumors = system: VSVΔ51 in OVCAR8 tumors; parameters: species or system SCID mice; conditions: mouse, in vivo, iv
VSVΔ51 in MiaPaca tumors [10] = type: cell-based, SCID mice
VSVΔ51 in GM38 cells = type: cell-based, human; conditions: 24 hours
JX594-GFP in 786-0 cells [11] = type: cell-based, human

SEQ ID NO: 14: human recombinant FGF2 protein (Accession: # P09038)
virus replication [1]: enhance virus replication

FGF2: recombinant human FGF2 protein; amino acid sequence shown in SEQ ID NO: 9
total PFU/mL, fold higher than untreated or FGF1-treated cells (VSVΔ51 in WI38 cells): at least 15 fold | Virus titre (VSVΔ51 in MC38 cells): 7.73e6 ± 9.8e5 pfu/mL | measles viral replication (virus titers) [2]: Enhanced Viral Replication | virus titers, fold higher compared to control (untreated and FGF1-treated) cells (VSVΔ51 in 786-0 cells [3]): 10 fold | influenza viral replication (viral titers) [4]: Enhanced Viral Replication | total PFU/mL, fold higher than untreated or FGF1-treated cells (VSVΔ51 in OVCAR8 cells): at least 15 fold | VSVΔ51 titers in tumors (VSVΔ51 in 786-0 tumors [5]): enhanced virus replication | virus replication vs untreated cells (VSV in 786-0 cells): enhanced virus replication | virus replication vs untreated cells (JX594-GFP in 786-0 cells [6]): enhanced virus replication | virus replication vs untreated cells (MG1 in 786-0 cells): enhanced virus replication | virus replication vs untreated cells (Reovirus in 786-0 cells): enhanced virus replication | total PFU/mL, fold higher than untreated or FGF1-treated cells (VSVΔ51 in CT26 cells): at least 15 fold | rate of production of VSVΔ51 compared to untreated 786-0 cells (VSVΔ51 in 786-0 cells [7]): increased | FGF2 concentration at which enhanced VSVΔ51 replication is seen (VSVΔ51 in 786-0 cells [7]; 24 hours): ≤ 20 ng/mL | total PFU/mL, fold higher than untreated or FGF1-treated cells (VSVΔ51 in 786-0 cells [7]; 24 hours): at least 15 fold | virus replication vs untreated cells (VSVΔ51 in 786-0 cells [7]; 24 hours): enhanced virus replication | pfu/ml in cell associated supernatants (VSVΔ51 in 786-0 cells [7]; after 6 hours): about 1E2 pfu/ml | plaque forming units/mL in cell associated supernatants (VSVΔ51 in 786-0 cells [7]; after 48 hours): about 5E6 pfu/mL | virus replication vs untreated cells (HSV-1 in 786-0 cells): enhanced virus replication | VSVΔ51 titers in tumors (VSVΔ51 in MiaPaca tumors [8]): enhanced virus replication | ex-vivo virus infection and GFP expression, fluorescent pictures (VSVΔ51 in 786-0 tumors [9]): increased ex-vivo virus infection and transgene protein expression (GFP) | ex vivo virus production (virus titers) (VSVΔ51 in 786-0 tumors [9]; 48 hours): enhancement of ex vivo virus production | VSVΔ51 titers in tumors (VSVΔ51 in OVCAR8 tumors): enhanced virus replication | ex-vivo virus infection and GFP expression, fluorescent pictures (VSVΔ51 in MiaPaca tumors [10]): increased ex-vivo virus infection and transgene protein expression (GFP) | ex vivo virus production (virus titers) (VSVΔ51 in MiaPaca tumors [10]; 48 hours): enhancement of ex vivo virus production | effect on virus replication (VSVΔ51 in GM38 cells): did not significantly affect virus replication

B1: mFGF2: recombinant murine FGF2 protein; amino acid sequence shown in SEQ ID NO: 11 (protein)
chain: MAASGITSLPALPEDGGAAFPPGHFKDPKRLYCKNGGFFLRIHPDGRVDGVREKSDPHVKLQLQAEERGVVSIKGVCANRYLAMKEDGRLLASKCVTEECFFFERLESNNYNTYRSRKYSSWYVALKRTGQYKLGSKTGPGQKAILFLPMSAKS
modifications: recombinant mouse protein
Virus titre (VSVΔ51 in MC38 cells): 8.20e6 ± 1.1e6 pfu/mL | Average of pixel intensity (JX594-GFP in 786-0 cells [11]): 24.90 | Relative pixel intensity increase (JX594-GFP in 786-0 cells [11]): 4.37 | Average of pixel intensity (JX594-GFP in 786-0 cells [11]; after 48 hours): 24.90 | Relative pixel intensity increase (JX594-GFP in 786-0 cells [11]; after 48 hours): 4.37
